The values that follow come from ChEMBL document CHEMBL4350989, “Discovery of 2,4-diarylaminopyrimidine derivatives bearing dithiocarbamate moiety as novel FAK inhibitors with antitumor and anti-angiogenesis activities” (Eur J Med Chem, 2019).

The subject of assay [1] is HCT-116. The assay is described as follows: Induction of apoptosis in human HCT116 cells assessed as viable cells at 0.005 uM after 24 hrs by Annexin-V and 7-AAD staining based flow cytometric analysis (reference value: 88.6%). Format: functional. The settings on record: HCT-116, 24 h, read-out: Activity.
Assay [2] has as its system HCT-116. The assay is described as follows: Induction of cell cycle arrest in human HCT116 cells assessed as accumulation at S phase at 0.005 uM after 24 hrs by 7-AAD staining-based flow cytometric analysis (reference value: 37.20%). Format: functional. A general note: A flow cytometer gives signals particle by particle.
Assay [3] concerns HCT-116. The assay is described as follows: Induction of apoptosis in human HCT116 cells assessed as necrotic cells at 0.1 uM after 24 hrs by Annexin-V and 7-AAD staining based flow cytometric analysis (reference value: 0.68%). Format: functional.
For assay [4], the system named is MCF7. Put plainly: Induction of apoptosis in human MCF7 cells assessed as viable cells at 0.01 uM after 24 hrs by Annexin-V and 7-AAD staining based flow cytometric analysis (reference value: 90.2%). Format: functional. The settings on record: MCF7, 24 h, read-out: Activity.
Assay [5] deals with MCF7. Put plainly: Induction of apoptosis in human MCF7 cells assessed as necrotic cells at 0.01 uM after 24 hrs by Annexin-V and 7-AAD staining based flow cytometric analysis (reference value: 0.16%). Format: functional.
The subject of assay [6] is HCT-116. Put plainly: Induction of apoptosis in human HCT116 cells assessed as late apoptotic cells at 0.005 uM after 24 hrs by Annexin-V and 7-AAD staining based flow cytometric analysis (reference value: 2.63%). Format: functional.
Assay [7] relates to MCF7. Put plainly: Induction of cell cycle arrest in human MCF7 cells assessed as accumulation at S phase at 0.005 uM after 24 hrs by 7-AAD staining-based flow cytometric analysis (reference value: 26.07%). Format: functional.
The test system of a further assay is U-87 MG. Put plainly: Antiproliferative activity against human U87MG cells overexpressing FAK assessed as reduction in cell viability after 72 hrs by MTS assay.
The test system of assay [8] is MCF7. Put plainly: Induction of cell cycle arrest in human MCF7 cells assessed as accumulation at G2/M phase at 0.005 uM after 24 hrs by 7-AAD staining-based flow cytometric analysis (reference value: 11.48%). Format: functional.
Assay [9] deals with MCF7. The assay is described as follows: Induction of apoptosis in human MCF7 cells assessed as early apoptotic cells at 0.01 uM after 24 hrs by Annexin-V and 7-AAD staining based flow cytometric analysis (reference value: 2.04%). Format: functional.
In assay [10] the test system is HCT-116. The assay is described as follows: Induction of apoptosis in human HCT116 cells assessed as necrotic cells at 0.005 uM after 24 hrs by Annexin-V and 7-AAD staining based flow cytometric analysis (reference value: 0.68%). Format: functional.
Assay [11] deals with HCT-116. Put plainly: Induction of apoptosis in human HCT116 cells assessed as viable cells at 0.05 uM after 24 hrs by Annexin-V and 7-AAD staining based flow cytometric analysis (reference value: 88.6%). Format: functional. The settings on record: HCT-116, 24 h, read-out: Activity.
Assay [12] deals with HCT-116. The assay is described as follows: Induction of apoptosis in human HCT116 cells after 24 hrs by Annexin-V and 7-AAD staining based flow cytometric analysis. Format: functional, cell-based.
The subject of assay [13] is MCF7. Put plainly: Induction of apoptosis in human MCF7 cells assessed as viable cells at 0.05 uM after 24 hrs by Annexin-V and 7-AAD staining based flow cytometric analysis (reference value: 90.2%). Format: functional. The settings on record: MCF7, 24 h, read-out: Activity.
Assay [14] relates to MCF7. The assay is described as follows: Induction of apoptosis in human MCF7 cells assessed as viable cells at 0.005 uM after 24 hrs by Annexin-V and 7-AAD staining based flow cytometric analysis (reference value: 90.2%). Format: functional. To be noted: MCF7, 24 h, read-out: Activity.
For the next assay, the species on record is Homo sapiens. The assay is described as follows: Induction of apoptosis in human […] after 24 hrs by Annexin-V and 7-AAD staining based flow cytometric analysis. Format: functional, cell-based.
For assay [15], the system named is MCF7. Put plainly: Induction of apoptosis in human MCF7 cells assessed as necrotic cells at 0.005 uM after 24 hrs by Annexin-V and 7-AAD staining based flow cytometric analysis (reference value: 0.16%). Format: functional.
Assay [16] relates to MCF7. The assay is described as follows: Induction of cell cycle arrest in human MCF7 cells assessed as accumulation at G0/G1 phase at 0.05 uM after 24 hrs by 7-AAD staining-based flow cytometric analysis (reference value: 62.45%). Format: functional.
For assay [17], the system named is HCT-116. The assay is described as follows: Induction of cell cycle arrest in human HCT116 cells assessed as accumulation at G0/G1 phase at 0.1 uM after 24 hrs by 7-AAD staining-based flow cytometric analysis (reference value: 50.53%). Format: functional.

The term IC50 denotes the concentration needed to halve the response being measured. For the molecule `CNC(=O)c1ccccc1Nc1nc(Nc2ccc(C(=O)N3CCN(C(=S)SCCN(C)C)CC3)cc2)ncc1C(F)(F)F`, the figures for the viability at 0.005 µM in the assay with HCT-116 [1] and in the assay with MCF7 [14] were 82.4% and 74.2%, respectively. Also, the Activity in the assay on HCT-116 [2] was 41.86%; in the assay with HCT-116 [3], 0%; in the assay with MCF7 [5], 0.47%; with HCT-116 [6], 1.42%; in the assay on MCF7 [7], 21.4%; in the assay with MCF7 [8], 36.67%. Also, the Activity with MCF7 [9] was 6.95%; with HCT-116 [10], 0.2%; with HCT-116 [12], “Dose-dependent effect”; in the assay filed under Homo sapiens, “Dose-dependent effect”; with MCF7 [15] it was 0.16%; with MCF7 [16] it was 6.72%. For the same molecule, the Activity in the assay on HCT-116 [17] was found to be 5.14%. Besides, the viability at 0.01 µM in the assay with MCF7 [4] came to 71.2%. For the same molecule, the IC50 with U-87 MG is 60 nM. Moreover, the viability at 0.05 µM in the assay with HCT-116 [11] came out at 79.3%; in the assay on MCF7 [13], 60.1%.
